Our source for the IC50 values is patent US8399676B2, “Piperidine derivatives” (Hoffman-La Roche Inc., priority 2009, dated 2013).

Structures are written as SMILES. Structures can show the parent of a compound that is named as a salt.

The target in the experiment is T1, human HSL (Homo sapiens, UniProt Q05469).
T1 construct: generate a full length human HSL ORF with a 3′-His6 tag; His6 (C); made in house; host or cells: High 5 insect cells (baculovirus, pFast-BAC)
T1 sequence (Q05469 1-1076): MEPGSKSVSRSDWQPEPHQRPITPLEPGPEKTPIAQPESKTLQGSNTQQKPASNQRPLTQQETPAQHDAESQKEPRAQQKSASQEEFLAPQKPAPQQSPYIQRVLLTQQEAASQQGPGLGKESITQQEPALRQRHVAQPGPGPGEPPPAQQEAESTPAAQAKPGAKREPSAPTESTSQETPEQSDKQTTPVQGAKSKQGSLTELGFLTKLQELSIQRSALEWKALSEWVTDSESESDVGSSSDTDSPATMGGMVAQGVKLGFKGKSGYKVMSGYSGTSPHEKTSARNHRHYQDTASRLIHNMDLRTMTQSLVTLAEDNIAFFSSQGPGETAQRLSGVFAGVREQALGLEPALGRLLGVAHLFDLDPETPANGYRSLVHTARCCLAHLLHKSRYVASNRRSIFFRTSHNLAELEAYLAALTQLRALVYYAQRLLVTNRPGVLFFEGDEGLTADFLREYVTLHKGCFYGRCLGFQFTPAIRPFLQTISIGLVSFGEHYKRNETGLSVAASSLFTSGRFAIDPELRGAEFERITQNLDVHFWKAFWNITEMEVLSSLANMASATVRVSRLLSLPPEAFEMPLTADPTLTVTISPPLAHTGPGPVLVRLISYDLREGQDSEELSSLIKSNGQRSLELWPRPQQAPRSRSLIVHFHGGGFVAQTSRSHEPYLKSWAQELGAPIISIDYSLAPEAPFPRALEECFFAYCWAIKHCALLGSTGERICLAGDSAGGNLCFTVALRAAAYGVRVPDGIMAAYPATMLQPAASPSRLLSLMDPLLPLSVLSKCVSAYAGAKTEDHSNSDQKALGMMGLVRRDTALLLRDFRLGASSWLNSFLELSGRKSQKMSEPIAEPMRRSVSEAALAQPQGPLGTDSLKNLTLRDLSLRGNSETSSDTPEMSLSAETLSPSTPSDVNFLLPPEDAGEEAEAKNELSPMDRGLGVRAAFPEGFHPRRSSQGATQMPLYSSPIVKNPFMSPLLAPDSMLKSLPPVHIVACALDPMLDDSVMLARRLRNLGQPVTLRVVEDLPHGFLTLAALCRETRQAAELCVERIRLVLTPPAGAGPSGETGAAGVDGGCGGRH
The experiment is described as follows: Human Hormone-Sensitive Lipase (HSL) enzyme inhibition assay (colorimetric, DMPT substrate). The format is biochemical. Conditions: read-out: HSL hum IC50. The method in brief:
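Full-length human HSL carrying a C-terminal His6 tag was expressed in High 5 insect cells via baculovirus and purified on Ni-NTA. Compounds from 3-fold DMSO series were mixed with 1.5 mM DMPT substrate suspension in 100 mM MOPS pH 7.2 with 0.2 mg/ml fatty acid-free BSA, then enzyme (15 ug/ml) was added for 20 minutes at 37 °C. Released thiol was detected with DTNB plus SDS/Triton X-100 (15 minutes, room temperature) at 405 nm.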
With `COc1ccc(Cl)cc1NC(=O)N1CCC(O)(C(=O)Nc2ccc(C(C)(C)C)cc2)CC1` [Example 50, 4-Hydroxy-piperidine-1,4-dicarboxylic acid 4-[(4-tert-butyl-phenyl)-amide] 1-[(5-chloro-2-methoxy-phenyl)-amide]], the IC50 amounted to 840 nM. In the case of `NC1(C(=O)Nc2cccc(C(F)(F)F)c2)CCN(S(=O)(=O)c2ccccc2Cl)CC1` [Example 91, 4-Amino-1-(2-chloro-benzenesulfonyl)-piperidine-4-carboxylic acid (3-trifluoromethyl-phenyl)-amide] it was 710 nM; in that of `CC(C)(C)CC(=O)N1CCC(O)(C(=O)Nc2ccc(OC(F)(F)F)cc2)CC1` [Example 51, 1-(3,3-Dimethyl-butyryl)-4-hydroxy-piperidine-4-carboxylic acid (4-trifluoromethoxy-phenyl)-amide], 810 nM. The result for `Cc1ccc(S(=O)(=O)N2CCC(O)(C(=O)Nc3ccc(C(C)C)cc3)CC2)cc1` [Example 5, 4-Hydroxy-1-(toluene-4-sulfonyl)-piperidine-4-carboxylic acid (4-isopropyl-phenyl)-amide] reads 210 nM; that for `CC(C)c1ccc(NC(=O)C2(O)CCN(C(=O)Nc3ccc(C(F)(F)F)cc3)CC2)cc1` [Example 6, 4-Hydroxy-piperidine-1,4-dicarboxylic acid 4-[(4-isopropyl-phenyl)-amide] 1-[(4-trifluoromethyl-phenyl)-amide]], 210 nM. The result for `CCc1ccc(NC(=O)C2(N)CCN(S(=O)(=O)c3c(F)cccc3F)CC2)cc1` [Example 142, 4-Amino-1-(2,6-difluoro-benzenesulfonyl)-piperidine-4-carboxylic acid (4-ethyl-phenyl)-amide] reads 100 nM; that for `CC(C)CCC(=O)N1CCC(N)(C(=O)Nc2ccc(C(C)C)cc2)CC1` [Example 129, 4-Amino-1-(4-methyl-pentanoyl)-piperidine-4-carboxylic acid (4-isopropyl-phenyl)-amide], 480 nM; that for `CC(C)c1ccc(NC(=O)C2(O)CCN(Cc3ccc(C(F)(F)F)cc3)CC2)cc1` [Example 9, 4-Hydroxy-1-(4-trifluoromethyl-benzyl)-piperidine-4-carboxylic acid (4-isopropyl-phenyl)-amide], 450 nM.

Take `CCc1ccc(NC(=O)C2(N)CCN(S(=O)(=O)c3ccccc3S(C)(=O)=O)CC2)cc1` [Example 136, 4-Amino-1-(2-methanesulfonyl-benzenesulfonyl)-piperidine-4-carboxylic acid (4-ethyl-phenyl)-amide]: the 50% inhibitory concentration (IC50) came out at 610 nM. As to `CC(C)c1ccc(NC(=O)C2(N)CCN(C(=O)Nc3ccc(Cl)cc3)CC2)cc1` [Example 108, 4-Amino-piperidine-1,4-dicarboxylic acid 1-[(4-chloro-phenyl)-amide] 4-[(4-isopropyl-phenyl)-amide]; hydrochloride], the half-maximal inhibitory concentration (IC50) turned out to be 100 nM. For the molecule `CCc1ccc(NC(=O)C2(N)CCN(Cc3ccccc3F)CC2)cc1` [Example 153, 4-Amino-1-(2-fluoro-benzyl)-piperidine-4-carboxylic acid (4-ethyl-phenyl)-amide], the IC50 turned out to be 170 nM. In the case of `CC(C)(C)CS(=O)(=O)N1CCC(O)(C(=O)Nc2ccc(OC(F)(F)F)cc2)CC1` [Example 55, 1-(2,2-Dimethyl-propane-1-sulfonyl)-4-hydroxy-piperidine-4-carboxylic acid (4-trifluoromethoxy-phenyl)-amide] it was 330 nM; in that of `CC(C)c1ccc(NC(=O)C2(N)CCN(Cc3ccccc3F)CC2)cc1` [Example 109, 4-Amino-1-(2-fluoro-benzyl)-piperidine-4-carboxylic acid (4-isopropyl-phenyl)-amide; hydrochloride], 80 nM; in that of `CCc1ccc(NC(=O)C2(N)CCN(Cc3ccc(C(C)C)cc3)CC2)cc1` [Example 158, 4-Amino-1-(4-isopropyl-benzyl)-piperidine-4-carboxylic acid (4-ethyl-phenyl)-amide], 460 nM. Consider `CCc1ccc(NC(=O)C2(N)CCN(S(=O)(=O)c3ccccc3C(F)(F)F)CC2)cc1` [Example 145, 4-Amino-1-(2-trifluoromethyl-benzenesulfonyl)-piperidine-4-carboxylic acid (4-ethyl-phenyl)-amide], for which the IC50 is 130 nM. In the case of `CCc1ccc(NC(=O)C2(N)CCN(S(=O)(=O)c3ccc(C(F)(F)F)cc3Cl)CC2)cc1` [Example 147, 4-Amino-1-(2-chloro-4-trifluoromethyl-benzenesulfonyl)-piperidine-4-carboxylic acid (4-ethyl-phenyl)-amide] it was 430 nM; in that of `CCc1ccc(NC(=O)C2(N)CCN(Cc3ccccc3)CC2)cc1` [Example 151, 4-Amino-1-benzyl-piperidine-4-carboxylic acid (4-ethyl-phenyl)-amide], 540 nM. Turning to `CCN(C(=O)C1(O)CCN(S(=O)(=O)c2ccccc2F)CC1)c1ccc(OC(F)(F)F)cc1` [Example 75, 1-(2-Fluoro-benzenesulfonyl)-4-hydroxy-piperidine-4-carboxylic acid ethyl-(4-trifluoromethoxy-phenyl)-amide], the half-maximal inhibitory concentration (IC50) was determined as 750 nM. In the case of `Cc1ccccc1S(=O)(=O)N1CCC(O)(C(=O)Nc2ccc(OC(F)(F)F)cc2)CC1` [Example 59, 4-Hydroxy-1-(toluene-2-sulfonyl)-piperidine-4-carboxylic acid (4-trifluoromethoxy-phenyl)-amide] it was 290 nM; in that of `CC(C)(C)c1ccc(NC(=O)C2(O)CCN(C(=O)Nc3ccc(C(F)(F)F)cc3)CC2)cc1` [Example 15, 4-Hydroxy-piperidine-1,4-dicarboxylic acid 4-[(4-tert-butyl-phenyl)-amide] 1-[(4-trifluoromethyl-phenyl)-amide]], 410 nM; in that of `CC(C)Oc1ccc(NC(=O)C2(O)CCN(Cc3ccc(OC(F)(F)F)cc3)CC2)cc1` [Example 14, 4-Hydroxy-1-(4-trifluoromethoxy-benzyl)-piperidine-4-carboxylic acid (4-isopropoxy-phenyl)-amide], 600 nM. In the case of `CN(C(=O)C1(O)CCN(S(=O)(=O)c2ccccc2C(F)(F)F)CC1)c1ccc(OC(F)(F)F)cc1` [Example 73, 4-Hydroxy-1-(2-trifluoromethyl-benzenesulfonyl)-piperidine-4-carboxylic acid methyl-(4-trifluoromethoxy-phenyl)-amide] it was 100 nM. As for `O=C(CC1CCCC1)N1CCC(O)(C(=O)Nc2ccc(OC(F)(F)F)cc2)CC1` [Example 53, 1-(2-Cyclopentyl-acetyl)-4-hydroxy-piperidine-4-carboxylic acid (4-trifluoromethoxy-phenyl)-amide], the IC50 turned out to be 790 nM. Turning to `CC(C)CC(=O)N1CCC(N)(C(=O)Nc2ccc(C(C)C)cc2)CC1` [Example 128, 4-Amino-1-(3-methyl-butyryl)-piperidine-4-carboxylic acid (4-isopropyl-phenyl)-amide], the half-maximal inhibitory concentration (IC50) turned out to be 660 nM.

As to `CC(C)(C)c1ccc(NC(=O)C2(O)CCN(C(=O)c3cc(F)ccc3F)CC2)cc1` [Example 43, 1-(2,5-Difluoro-benzoyl)-4-hydroxy-piperidine-4-carboxylic acid (4-tert-butyl-phenyl)-amide], the half-maximal inhibitory concentration (IC50) came out at 640 nM. For `CC(C)c1ccc(NC(=O)C2(N)CCN(C(=O)Nc3ccc(C(C)(C)C)cc3)CC2)cc1` [Example 89, 4-Amino-piperidine-1,4-dicarboxylic acid 1-[(4-tert-butyl-phenyl)-amide]-4-[(4-isopropyl-phenyl)-amide]; hydrochloride], the IC50 was determined as 120 nM. The result for `CCCCS(=O)(=O)N1CCC(N)(C(=O)Nc2ccc(CC)cc2)CC1` [Example 143, 4-Amino-1-(butane-1-sulfonyl)-piperidine-4-carboxylic acid (4-ethyl-phenyl)-amide] reads 530 nM.

As for `CC(C)c1ccc(CN2CCC(N)(C(=O)Nc3ccc(C(C)C)cc3)CC2)cc1` [Example 115, 4-Amino-1-(4-isopropyl-benzyl)-piperidine-4-carboxylic acid (4-isopropyl-phenyl)-amide; hydrochloride], the 50% inhibitory concentration (IC50) is 230 nM.
